We go through twelve compounds from article PMC7531004, “Discovery of gramicidin A analogues with altered activities by multidimensional screening of a one-bead-one-compound library” (Nature Communications, 2020).

For data set [1] the following is noted: cell viability/%. Put shortly:
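Peptide stocks diluted 250× in growth medium; P388 cells 1 × 10^4 cells/mL final; 37 °C, 5% CO2, 92 h. WST-1 + 1-methoxy PMS, 4 h, A415. Output: % viability.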

The subject of data set [2] is Streptococcus pyogenes SSI-9. The experiment in a line: Antibacterial activity assay of bead-derived peptides (three concentrations). The format is cell-based. Also noted: key: +++: inhibition by the 640-fold diluted peptide solution; ++: inhibition by the 160-fold diluted solution; +: inhibition by the 40-fold diluted solution; -: no inhibition. The note with it: S. pyogenes, bead-derived peptide solution, three concentrations. Put shortly:
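Growth inhibition scored visually as precipitated bacteria after 37 °C, 18 h incubation. Streptococcus pyogenes SSI-9 inoculum of 2 × 10^5 CFU in Ca2+/Mg2+-adjusted Mueller Hinton broth plus 5% laked horse blood; peptides tested at three levels: stock, 4-fold and 16-fold DMSO dilutions.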

Data set [3] can be described thus: H+/Na+ transport assay of bead-derived peptides (one-point).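 Also: relative to parent gramicidin A activity set to 1.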 The format is biochemical. Also noted: key: relative activity; mean of two control wells = 1.00. The note with it: bead-derived peptide solution, EYPC/EYPG LUVs. Summed up:
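One-point screen: peptide + pyranine-loaded LUVs, 30 min RT with vortexing, 96-well. Read-out is fluorescence intensity scaled as 100 × (Ix – I0)/(Imax – I0). Imax from Triton X-100, I0 from untreated vesicles, and the mean of the two control wells is set to 1.00.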

Where a SMILES comes first, the peptide text is derived from it. [ ]: non-standard residue; d: D form. The star is where a group is joined. NHCH2CH2OH = OCCN*; For = O=C*

The term viability denotes a read-out of living cells in per cent, often relative to untreated cells. Compound `CC(C)C[C@@H](NC(=O)[C@H](C)NC(=O)CNC(=O)[C@@H](NC=O)C(C)C)C(=O)N[C@@H](C)C(=O)N[C@@H](C(=O)N[C@H](C(=O)N[C@@H](C(=O)N[C@@H](Cc1c[nH]c2ccccc12)C(=O)N[C@H](CC(C)C)C(=O)N[C@@H](Cc1c[nH]c2ccccc12)C(=O)N[C@@H](C(=O)N[C@@H](Cc1c[nH]c2ccccc12)C(=O)N[C@H](CC(C)C)C(=O)N[C@@H](Cc1c[nH]c2ccccc12)C(=O)NCCO)C(C)C)C(C)C)C(C)C)C(C)C` [compound 3861] (For-VGA[dL]A[dV]V[dV]W[dL]W[dV]W[dL]W-NHCH2CH2OH) yielded a viability in data set [1] of 0.1%. Further, the antibacterial activity result in data set [2] is “++”. In addition, in data set [3], the “H+/Na+ transport activity normalized against the value of 1 (1.00)” value (“H+/Na+ transport activity normalized” below) is 1.51.

`CC(C)C[C@@H](NC(=O)[C@H](C)NC(=O)[C@H](NC(=O)[C@H](C)NC(=O)CNC(=O)[C@@H](NC=O)C(C)C)[C@H](C)O)C(=O)N[C@H](C(=O)N[C@H](CC(C)C)C(=O)N[C@@H](Cc1c[nH]c2ccccc12)C(=O)N[C@@H](C(=O)N[C@@H](Cc1c[nH]c2ccccc12)C(=O)N[C@@H](C(=O)N[C@@H](Cc1c[nH]c2ccccc12)C(=O)N[C@H](CC(C)C)C(=O)N[C@@H](Cc1c[nH]c2ccccc12)C(=O)NCCO)C(C)C)[C@H](C)O)C(C)C` [compound 5532] (For-VGA[dT]A[dL]V[dL]W[dT]W[dV]W[dL]W-NHCH2CH2OH) returned a viability in data set [1] of 100%. Also, the antibacterial activity entry in data set [2] is listed as “-”. In data set [3], the “H+/Na+ transport activity normalized” value is on record as 1.06.

As for `CC(C)C[C@@H](NC(=O)[C@H](C)NC(=O)CNC(=O)[C@@H](NC=O)C(C)C)C(=O)N[C@@H](C)C(=O)N[C@H](CC(C)C)C(=O)N[C@H](C(=O)N[C@@H](C(=O)N[C@@H](Cc1c[nH]c2ccccc12)C(=O)N[C@@H](C(=O)N[C@@H](Cc1c[nH]c2ccccc12)C(=O)N[C@H](CC(C)C)C(=O)N[C@@H](Cc1c[nH]c2ccccc12)C(=O)N[C@@H](C(=O)N[C@@H](Cc1c[nH]c2ccccc12)C(=O)NCCO)C(C)C)C(C)C)[C@H](C)O)C(C)C` [compound 8043] (For-VGA[dL]A[dL]V[dT]W[dV]W[dL]W[dV]W-NHCH2CH2OH), the viability in data set [1] was found to be 100%. For the same compound, the antibacterial activity result in data set [2] is on record as “-”. The “H+/Na+ transport activity normalized” value in data set [3] is 1.04.

In data set [1], `CC(C)C[C@@H](NC(=O)[C@H](C)NC(=O)[C@H](NC(=O)[C@H](C)NC(=O)CNC(=O)[C@@H](NC=O)C(C)C)[C@H](C)O)C(=O)N[C@H](C(=O)N[C@@H](C(=O)N[C@@H](Cc1c[nH]c2ccccc12)C(=O)N[C@@H](C(=O)N[C@@H](Cc1c[nH]c2ccccc12)C(=O)N[C@H](CC(C)C)C(=O)N[C@@H](Cc1c[nH]c2ccccc12)C(=O)N[C@@H](C(=O)N[C@@H](Cc1c[nH]c2ccccc12)C(=O)NCCO)C(C)C)[C@H](C)O)C(C)C)C(C)C` [compound 10338] (For-VGA[dT]A[dL]V[dV]W[dT]W[dL]W[dV]W-NHCH2CH2OH) came in with a viability of 100%. For the same compound, the antibacterial activity result in data set [2] was “-”. Also, the “H+/Na+ transport activity normalized” value in data set [3] is listed as 1.01.

In the case of `CC(C)C[C@@H](NC(=O)[C@H](C)NC(=O)CNC(=O)[C@@H](NC=O)C(C)C)C(=O)N[C@@H](C)C(=O)N[C@H](CC(C)C)C(=O)N[C@H](C(=O)N[C@@H](C(=O)N[C@@H](Cc1c[nH]c2ccccc12)C(=O)N[C@H](CC(C)C)C(=O)N[C@@H](Cc1c[nH]c2ccccc12)C(=O)N[C@@H](C(=O)N[C@@H](Cc1c[nH]c2ccccc12)C(=O)N[C@@H](C(=O)N[C@@H](Cc1c[nH]c2ccccc12)C(=O)NCCO)C(C)C)C(C)C)C(C)C)C(C)C` [compound 2557] (For-VGA[dL]A[dL]V[dV]W[dL]W[dV]W[dV]W-NHCH2CH2OH), in data set [1], the viability was determined as 31%. The antibacterial activity result in data set [2] is reported as “++”. Further, the “H+/Na+ transport activity normalized” value in data set [3] worked out at 1.21.

As for `CNC(=O)C[C@@H](NC(=O)[C@H](Cc1c[nH]c2ccccc12)NC(=O)[C@H](NC(=O)[C@H](Cc1c[nH]c2ccccc12)NC(=O)[C@@H](CC(C)C)NC(=O)[C@H](Cc1c[nH]c2ccccc12)NC(=O)[C@H](NC(=O)[C@@H](NC(=O)[C@@H](CC(C)C)NC(=O)[C@H](C)NC(=O)[C@@H](CC(C)C)NC(=O)[C@H](C)NC(=O)CNC(=O)[C@@H](NC=O)C(C)C)C(C)C)C(C)C)C(C)C)C(=O)N[C@@H](Cc1c[nH]c2ccccc12)C(=O)NCCO` [compound 8516] (For-VGA[dL]A[dL]V[dV]W[dL]W[dV]W[dD](NHMe)W-NHCH2CH2OH), in data set [1], the viability amounted to 48.7%. In addition, in data set [2], the antibacterial activity result is recorded as “-”. Besides, the “H+/Na+ transport activity normalized” value in data set [3] amounted to 1.09.

In data set [1], `CC(C)C[C@@H](NC(=O)[C@H](Cc1c[nH]c2ccccc12)NC(=O)[C@H](NC(=O)[C@H](Cc1c[nH]c2ccccc12)NC(=O)[C@H](NC(=O)[C@@H](NC(=O)[C@H](NC(=O)[C@H](C)NC(=O)[C@H](NC(=O)[C@H](C)NC(=O)CNC(=O)[C@@H](NC=O)C(C)C)[C@H](C)O)C(C)C)C(C)C)C(C)C)[C@H](C)O)C(=O)N[C@@H](Cc1c[nH]c2ccccc12)C(=O)N[C@@H](C(=O)N[C@@H](Cc1c[nH]c2ccccc12)C(=O)NCCO)C(C)C` [compound 12629] (For-VGA[dT]A[dV]V[dV]W[dT]W[dL]W[dV]W-NHCH2CH2OH) gave a viability of 100%. For the same compound, the antibacterial activity entry in data set [2] is on record as “-”. The “H+/Na+ transport activity normalized” value in data set [3] is on record as 1.01.

As to `CNC(=O)C[C@@H](NC(=O)[C@H](C)NC(=O)[C@H](NC(=O)[C@H](C)NC(=O)CNC(=O)[C@@H](NC=O)C(C)C)C(C)C)C(=O)N[C@H](C(=O)N[C@@H](C(=O)N[C@@H](Cc1c[nH]c2ccccc12)C(=O)N[C@H](CC(C)C)C(=O)N[C@@H](Cc1c[nH]c2ccccc12)C(=O)N[C@@H](C(=O)N[C@@H](Cc1c[nH]c2ccccc12)C(=O)N[C@H](CC(C)C)C(=O)N[C@@H](Cc1c[nH]c2ccccc12)C(=O)NCCO)C(C)C)C(C)C)C(C)C` [compound 12938] (For-VGA[dV]A[dD](NHMe)V[dV]W[dL]W[dV]W[dL]W-NHCH2CH2OH), the viability in data set [1] was determined as 100%. In addition, the antibacterial activity entry in data set [2] is listed as “-”. Further, the “H+/Na+ transport activity normalized” value in data set [3] is given as 1.07.

Compound `CC(C)C[C@@H](NC(=O)[C@H](C)NC(=O)CNC(=O)[C@@H](NC=O)C(C)C)C(=O)N[C@@H](C)C(=O)N[C@@H](C(=O)N[C@H](C(=O)N[C@@H](C(=O)N[C@@H](Cc1c[nH]c2ccccc12)C(=O)N[C@H](CC(C)C)C(=O)N[C@@H](Cc1c[nH]c2ccccc12)C(=O)N[C@H](CC(C)C)C(=O)N[C@@H](Cc1c[nH]c2ccccc12)C(=O)N[C@@H](C(=O)N[C@@H](Cc1c[nH]c2ccccc12)C(=O)NCCO)C(C)C)[C@H](C)O)C(C)C)C(C)C` [compound 200] (For-VGA[dL]A[dV]V[dT]W[dL]W[dL]W[dV]W-NHCH2CH2OH) returned a viability in data set [1] of 100%. Moreover, in data set [2], the antibacterial activity result is listed as “+”. Further, the “H+/Na+ transport activity normalized” value in data set [3] came to 1.04.

`CC(C)C[C@@H](NC(=O)[C@H](C)NC(=O)CNC(=O)[C@@H](NC=O)C(C)C)C(=O)N[C@@H](C)C(=O)N[C@@H](C(=O)N[C@H](C(=O)N[C@H](CC(C)C)C(=O)N[C@@H](Cc1c[nH]c2ccccc12)C(=O)N[C@H](CC(C)C)C(=O)N[C@@H](Cc1c[nH]c2ccccc12)C(=O)N[C@@H](C(=O)N[C@@H](Cc1c[nH]c2ccccc12)C(=O)N[C@@H](C(=O)N[C@@H](Cc1c[nH]c2ccccc12)C(=O)NCCO)[C@H](C)O)C(C)C)C(C)C)[C@H](C)O` [compound 113] (For-VGA[dL]A[dT]V[dL]W[dL]W[dV]W[dT]W-NHCH2CH2OH): the viability in data set [1] is 100%. For the same compound, the antibacterial activity entry in data set [2] is on record as “-”. Besides, the “H+/Na+ transport activity normalized” value in data set [3] came to 1.00.

Take `CNC(=O)C[C@@H](NC(=O)[C@@H](NC(=O)[C@@H](CC(C)C)NC(=O)[C@H](C)NC(=O)[C@@H](CC(C)C)NC(=O)[C@H](C)NC(=O)CNC(=O)[C@@H](NC=O)C(C)C)C(C)C)C(=O)N[C@@H](Cc1c[nH]c2ccccc12)C(=O)N[C@@H](C(=O)N[C@@H](Cc1c[nH]c2ccccc12)C(=O)N[C@H](CC(C)C)C(=O)N[C@@H](Cc1c[nH]c2ccccc12)C(=O)N[C@H](CC(C)C)C(=O)N[C@@H](Cc1c[nH]c2ccccc12)C(=O)NCCO)C(C)C` [compound 2978] (For-VGA[dL]A[dL]V[dD](NHMe)W[dV]W[dL]W[dL]W-NHCH2CH2OH): the viability in data set [1] worked out at 100%. In addition, the antibacterial activity entry in data set [2] was “-”. The “H+/Na+ transport activity normalized” value in data set [3] came out at 1.18.

As for `CC(C)C[C@@H](NC(=O)[C@H](C)NC(=O)CNC(=O)[C@@H](NC=O)C(C)C)C(=O)N[C@@H](C)C(=O)N[C@H](CC(C)C)C(=O)N[C@H](C(=O)N[C@@H](C(=O)N[C@@H](Cc1c[nH]c2ccccc12)C(=O)N[C@H](CC(C)C)C(=O)N[C@@H](Cc1c[nH]c2ccccc12)C(=O)N[C@H](CC(C)C)C(=O)N[C@@H](Cc1c[nH]c2ccccc12)C(=O)N[C@@H](C(=O)N[C@@H](Cc1c[nH]c2ccccc12)C(=O)NCCO)C(C)C)C(C)C)C(C)C` [compound 1796] (For-VGA[dL]A[dL]V[dV]W[dL]W[dL]W[dV]W-NHCH2CH2OH), the viability in data set [1] amounted to 0%. Further, in data set [2], the antibacterial activity result is recorded as “-”. The “H+/Na+ transport activity normalized” value in data set [3] worked out at 1.09.
